Reference: patent US20250251402A1, “METHODS OF DETECTING MOLECULAR AGGREGATES USING IMAGE CORRELATION SPECTROSCOPY (ICS)” (The General Hospital Corporation, priority 2022, published 2025)
“Also recorded” adds a separate entry of the source.

Key:
SKOV3 cells = assay: γH2AX immunofluorescence in SKOV3 cells (intensity, Imaris Spots, ICS TNoP and DA); assay type: cell-based
Excerpt: (§1) For the ICS analysis, nuclei were segmented from the DAPI channel using a watershed approach in MATLAB. Briefly, we applied a difference of gaussians for size-based feature extraction of nuclei in the image (upper gaussian σ=100, lower gaussian σ=2-5 dependent on cell size). This feature enhanced image was then binarized to create a primary mask (using the function imbinarize) and connected components under 100 pixels were removed (using the function bwareaopen). We then created a distance transform of the resulting binary image (using the function bwdist). Seed points were determined by finding the regional maximum of a gaussian filtered image, with a gaussian σ of appropriate size for seed point detection (σ×7 or 8 dependent on cell size). The seed points were applied to the distance transform, and we applied the watershed function to the resulting image to obtain masks for each nucleus (extracted using the function regionprops).
(§2) Using the nucleus masks, we performed ICS analysis on the antibody-stained channel, within size limitations for a nucleus (objects >400 and <2400 pixels). Intensity, DA and TNOP were calculated for each cell. In this analysis, since the ROI is defined by the nucleus mask (segmented from nuclear signal using DAPI staining), TNoP represents the total number of particles per nucleus, with the image area being the number of pixels in each nuclear mask.
(§3) Measurements across experiments were normalized by the control in each dataset. […] Data were plotted in Prism and statistical analysis was performed in Excel.
(§4) Imaris spots analysis were performed with Imaris 9.8 with background subtraction, using a spot size of 1 μm that was measured from the smallest distinguishable foci from the control image. For images with multiple nuclei, ImarisCell was used with the detection type “cell and vesicles”, where the nucleus in the DAPI channel was modelled as the “cell” and antibody-labeled foci were modelled as the “vesicles”. This enabled us to count the number of foci per nucleus for multiple cells. In each dataset, the automatic “quality” threshold was determined from the control image and the same threshold was used for every image in the dataset to be able to compare the outputs across datasets. Similar to the ICS analysis, only cells with an area between 400-2400 voxels were included for analysis.
(§5) All chemicals were purchased from Sigma unless otherwise noted. All drugs were purchased from Selleck Chemicals. Cells were cultured in media supplemented with 10% fetal bovine serum and 1% penicillin/streptomycin. OVCA429 were originally obtained from Dr. Michael Birrer and cultured in DMEM. SKOV3 was obtained from ATCC and cultured in RPMI. For MMS treatment, cells were incubated for 6 hours before fixation with 4% formaldehyde, whereas for treatment with PARP inhibitors, cells were incubated for 24 hours before fixation.
(§6) Cells were plated in 8-well slides (Fisher) to achieve 50% confluence overnight. Cells were then treated and fixed with 4% formaldehyde in PBS at room temperature for 10 minutes. Antibody staining was performed according to the manufacturers protocol (Cell Signaling Technologies or Abcam). Primary antibodies used were γH2AX (CST, #2577), RPA1 (CST, #2267) and RAD51 (Abcam, 63801), with Anti-rabbit IgG Fab2 Alexa Fluor 647 (CST, #4414) as the secondary fluorescent antibody. After antibody labeling, prolong gold with DAPI (CST) was added and samples were stored for up to 1 week prior to imaging. Confocal imaging was performed on an Olympus FV1000 multiphoton/confocal microscope using an Olympus XLUMPlanFL N 20× objective, NA 1.00 with chromatic correction, and 3× digital zoom. DAPI was excited with a 405 nm laser, while Alexa Fluor 647 was excited with a 635 nm laser. A multiband (DM 405/488/561/633 nm) dichroic mirror was used to direct the excitation laser and collect emission. […]

OVCA429 cells = assay: γH2AX immunofluorescence in OVCA429 cells (intensity, Imaris Spots, ICS TNoP and DA); assay type: cell-based
Excerpt: as §1, §2, §3, §4, §5, §6

PARP1 [1] = target: T1, PARP1 (Homo sapiens, UniProt P09874); assay: PARP1 trapping by chromatin fractionation in HT1080 cells; assay type: cell-based; conditions: HT1080, 100 μM veliparib vs 1 μM talazoparib
Procedure: Lysate was then pelleted by centrifugation at 14,000 g for 15 min at 4° C. Supernatant was transferred to a clean tube and total protein was determined using a BCA assay (Pierce). Protein was loaded into a NuPAGE gel (Thermo Fisher) and transferred to nitrocellulose paper (Thermo Fisher). Blocking and antibody labeling was then carried out according to the antibody manufacturer's protocol. For PAR measurements, cells were treated with TMZ for 1 hour, or 1 μM H2O2 for 10 minutes in 6-well plates. Cells were trypsinized and washed once with PBS prior to cell lysis. Western blot expression levels were quantified by inverting the red channel of an image of the blot in FIJI, subtracting the background intensity and measuring the total intensity of the lane. These values where then normalized to the control signal. […] The media was removed, and cells were scraped off the culture dish in 1 ml PBS. The cells were pelleted by centrifugation at 500 g for 4 minutes at 4° C. and the solution was removed. Pellets were resuspended in 250 μl lysis buffer (10 mM HEPES, 10 mM KCl, 1.5 mM MgCl2, 340 mM sucrose, 10% glycerol, 0.1% Triton X-100, pH 7.9, protease inhibitors (Thermo Fisher)) and incubated on ice for 10 minutes. Nuclei were separated by centrifugation at 1300 g for 5 minutes at 4° C. and the solution was collected (cytoplasm fraction). […]

HCC1937 cells = assay: 53BP1-mApple condensate anisotropy (homo-FRET) and intensity in HCC1937 cells; assay type: cell-based; conditions: HCC1937, 1 μM PARPi and 100 μM TMZ for 1 hour
Procedure: (§7) All fluorescence imaging was performed on an Olympus FV1000 multiphoton/confocal microscope. Anisotropy measurements were performed through custom modifications to the imaging system as previously described (30). Briefly, linear polarization of two photon excitation light at 910 nm (MaiTai femtosecond laser, Spectra Physics) was controlled by a glan-thompson prism and half wave plate. […] was collected in orthogonal orientations through two detectors, parallel and perpendicular to excitation polarization, through a polarizing beam splitter that replaced a dichroic mirror in the emission filter cube. The alignment and detector gain and noise were validated each imaging session through measurements of a standard slide. Images were taken with an Olympus 25× XLPlan N objective, NA 1.05, and 3× digital zoom. Confocal imaging was performed with an Olympus XLUMPlanFL N 20× objective, NA 1.00 with chromatic correction, and 3× digital zoom.
Cells were grown on 12 mm round, uncoated, sterilized glass coverslips in 24-well plates for 24 hours. Cells were treated with PARPi and 100 μM TMZ for 1 hour or 10 nM GMX1778 overnight followed by 100 μM TMZ for 1 hour. TMZ was added to stimulate new DNA damage induced condensates in the presence of PARPi or NAD″ depletion. Cells were then transferred to the microscope for anisotropy imaging. Images were analyzed in MATLAB. Nuclei were segmented through intensity thresholding and condensates were segmented through further intensity thresholding with a higher threshold. Values of segmented nuclei and condensates were determined through the regionprops function. Segmentation was corrected through area restrictions to ensure that regions of interest were isolated condensates. The thresholding parameters were consistent throughout experiments. The average intensity and anisotropy of each segmented nuclei or condensate was then calculated. Data were plotted in Prism and analysis performed in Prism or Excel.

HT1080 cells [2] = assay: 53BP1-mApple condensate anisotropy and intensity in HT1080 cells; assay type: cell-based; conditions: HT1080, increased veliparib concentrations
Procedure: as §7
Cells were grown on 12 mm round, uncoated, sterilized glass coverslips in 24-well plates for 24 hours. Cells were treated with PARPi and 100 μM TMZ for 1 hour or 10 nM GMX1778 overnight followed by 100 μM TMZ for 1 hour. […] Images were analyzed in MATLAB. […] Values of segmented nuclei and condensates were determined through the regionprops function. […] The average intensity and anisotropy of each segmented nuclei or condensate was then calculated. […]

PARP1 [3] = target: T1, PARP1; conditions: actual rate multiplied by 10^−7 for the stochastic model
Excerpt: ka (trap): The association constant of PARPi for PARP1. […] Values were taken as an average of previous measurements. […] Values were taken as an average of previous measurements. […] Values were taken as an average of previous measurements.
Association of PARPi to PARP1 (p.ka_trap): The association constant of each PARPi on PARP1. […] Rates were corrected to account for the interpretation of PARP1 concentration relative to DNA through multiplying the actual rate by 10^−7. This rate correction was performed for all association constants.

PARP = PARP (Homo sapiens, UniProt P09874); conditions: HT1080, 1 μM PARPi, 500 nM fluorescent olaparib
Procedure: Cells were grown on 25 mm round, uncoated, sterilized glass coverslips in 6-well plates for 24 hours. […] Coverslips were removed from the 6-well plates, mounted onto a perfusion chamber (Warner Instruments), sealed with vacuum grease and perfused with a custom tubing setup. The chamber was then mounted onto the microscope and temperature was maintained at 37° C. using a heating pad and feedback loop. Cells were initially located using fluorescent drug or autofluorescence and allowed to temperature equilibrate on the microscope stage for at least 5 minutes. Images were acquired using the anisotropy configuration as described above. After initial images were acquired, the chamber was perfused with 10× volume of the wash media containing fluorescent drug while chamber media and excess wash media were aspirated out of the chamber with vacuum. Images were then acquired at the desired time points while correcting for any drift. Association of fluorescent drug measurements were performed through rapid addition of media containing fluorescent drug (500 nM) and immediate image acquisition.
Nuclei were segmented in MATLAB and the average nuclear intensity and anisotropy were calculated using the regionprops function. […] Values were then plotted as a function of time, with t=0 when PARPi was removed, in Prism (Graphpad) and a one phase association curve was fit to obtain the binding rate. […]

PARP1 [4] = target: T1, PARP1; conditions: average of previous measurements; cited from earlier work
PARP1-DNA = PARP1-DNA (Homo sapiens, UniProt P09874); conditions: from previous findings; cited from earlier work
HT1080 cells [5] = assay: γH2AX immunofluorescence ICS DA and nuclear intensity in HT1080 cells; assay type: cell-based; conditions: HT1080, 100 nM PDD00017273 overnight
Procedure: Cells were plated in 8-well […] slides (Thermo or Ibidi) to achieve 50% confluence overnight. Cells were then treated and fixed with 4% paraformaldehyde in PBS at room temperature for 10 minutes. Antibody staining was performed according to the manufacturers protocol. Following fluorescent secondary antibody labeling, prolong gold with DAPI (Cell Signaling Technologies) was added and samples were stored for up to 1 week prior to imaging.
ICS analysis was performed in MATLAB as previously described (41). Briefly, nuclei were segmented from the DAPI channel with the MATLAB function, imbinarize, converting the greyscale image to a binary dependent on an automatically defined threshold. The MATLAB function, regionprops, was used to identify single nuclei as objects. Each nucleus was used as a mask to perform ICS analysis on the antibody-stained channel, within size limitations for a nucleus (objects >400 and <3000 pixels). To ensure the analysis of antibody stained nuclei, nuclei under an average intensity of 200 au after background subtraction were excluded. The spatial autocorrelation functions were calculated using Fourier methods, then fit to a 2D Gaussian using a nonlinear least-squares algorithm (41). Using the outputs of the fitting, the mean number of independent emitting fluorescent entities per focal spot area and subsequently the DA were determined (59). DA measurements across experiments were normalized by the control in each dataset. […] Any DA values exceeding 3 standard deviations from the mean were defined as incorrectly segmented and removed. Data were plotted in Prism and analysis performed in Prism or Excel.

HT1080 cells [6] = assay: Dose response cell viability (Presto Blue) in HT1080 cells; assay type: cell-based; conditions: HT1080, 100 nM PDD00017273
Procedure: Cells were plated in a 96-well plate at 2×10^3 cells per well and treated with drug for 5 days in three replicate wells. Cell viability was then determined using Presto Blue (Thermo Fisher). Signal was averaged over 3 replicate wells and normalized to blank (no cells) as well as to the levels of untreated wells. A sigmoidal response curve was fit to the average of two experiments in Prism. PARPi z score was calculated for each PARPi using 9 cell lines. The average z score over three PARPi (veliparib, olaparib, talazoparib) was then determined as a representation of cell line PARPi sensitivity.

T1 sequence (P09874 whole entry, species assumed): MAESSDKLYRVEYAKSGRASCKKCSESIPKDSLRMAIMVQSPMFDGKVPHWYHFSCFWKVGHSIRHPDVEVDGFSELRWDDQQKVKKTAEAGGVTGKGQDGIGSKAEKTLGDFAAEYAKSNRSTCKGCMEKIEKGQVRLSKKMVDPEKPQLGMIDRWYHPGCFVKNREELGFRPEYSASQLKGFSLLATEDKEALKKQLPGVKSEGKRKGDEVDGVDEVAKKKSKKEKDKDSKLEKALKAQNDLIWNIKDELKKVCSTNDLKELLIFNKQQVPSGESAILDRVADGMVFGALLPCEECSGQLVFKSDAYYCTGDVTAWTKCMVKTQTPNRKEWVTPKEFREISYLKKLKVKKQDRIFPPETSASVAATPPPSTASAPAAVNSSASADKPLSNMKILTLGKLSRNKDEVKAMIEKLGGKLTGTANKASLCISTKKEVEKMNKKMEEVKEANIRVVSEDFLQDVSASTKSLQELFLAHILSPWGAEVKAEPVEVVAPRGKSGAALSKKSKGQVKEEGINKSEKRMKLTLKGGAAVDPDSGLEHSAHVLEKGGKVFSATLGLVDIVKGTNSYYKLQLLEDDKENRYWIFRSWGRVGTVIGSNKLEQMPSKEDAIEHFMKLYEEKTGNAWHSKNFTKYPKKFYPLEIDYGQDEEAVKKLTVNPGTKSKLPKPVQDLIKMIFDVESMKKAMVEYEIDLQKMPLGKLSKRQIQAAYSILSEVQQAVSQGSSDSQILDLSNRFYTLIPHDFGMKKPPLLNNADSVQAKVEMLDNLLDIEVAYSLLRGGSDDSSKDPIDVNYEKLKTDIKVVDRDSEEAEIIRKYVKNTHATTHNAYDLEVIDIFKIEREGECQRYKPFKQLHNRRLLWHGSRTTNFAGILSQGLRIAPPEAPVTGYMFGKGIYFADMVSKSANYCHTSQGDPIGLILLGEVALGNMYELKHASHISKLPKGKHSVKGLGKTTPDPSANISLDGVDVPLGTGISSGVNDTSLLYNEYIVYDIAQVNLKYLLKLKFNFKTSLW
Chain of PARP (P09874 2-1014): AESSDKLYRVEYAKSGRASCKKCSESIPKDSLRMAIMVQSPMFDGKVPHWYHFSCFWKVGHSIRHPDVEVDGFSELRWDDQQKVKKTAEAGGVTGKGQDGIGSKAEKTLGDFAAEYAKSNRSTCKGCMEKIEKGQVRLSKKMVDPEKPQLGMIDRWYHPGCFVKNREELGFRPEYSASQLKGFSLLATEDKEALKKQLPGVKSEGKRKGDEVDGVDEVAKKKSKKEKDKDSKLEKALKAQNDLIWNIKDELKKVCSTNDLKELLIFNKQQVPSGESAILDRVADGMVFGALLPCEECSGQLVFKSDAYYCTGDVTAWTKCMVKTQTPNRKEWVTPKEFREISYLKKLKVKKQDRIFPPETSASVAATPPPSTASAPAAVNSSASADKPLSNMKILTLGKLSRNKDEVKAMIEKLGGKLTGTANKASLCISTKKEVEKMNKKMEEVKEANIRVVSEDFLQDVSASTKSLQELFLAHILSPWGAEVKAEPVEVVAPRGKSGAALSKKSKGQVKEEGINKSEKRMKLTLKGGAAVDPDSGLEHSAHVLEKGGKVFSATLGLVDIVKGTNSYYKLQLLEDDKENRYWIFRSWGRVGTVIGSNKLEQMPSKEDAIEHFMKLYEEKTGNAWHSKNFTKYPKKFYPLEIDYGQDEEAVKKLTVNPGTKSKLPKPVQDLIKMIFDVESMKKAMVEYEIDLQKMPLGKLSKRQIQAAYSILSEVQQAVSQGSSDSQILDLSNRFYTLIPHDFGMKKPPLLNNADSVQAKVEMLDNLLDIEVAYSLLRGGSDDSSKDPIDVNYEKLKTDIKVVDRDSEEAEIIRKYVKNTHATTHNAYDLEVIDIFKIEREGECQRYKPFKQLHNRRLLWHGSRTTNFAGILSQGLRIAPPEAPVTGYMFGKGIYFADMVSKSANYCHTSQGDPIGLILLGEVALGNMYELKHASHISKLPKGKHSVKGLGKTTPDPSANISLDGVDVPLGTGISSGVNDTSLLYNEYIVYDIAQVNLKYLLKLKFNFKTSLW
Chain of PARP1-DNA (P09874 whole entry): as the sequence (P09874 whole entry, species assumed) above

| Molecule | ICS TNoP of γH2AX, dose dependence (SKOV3 cells; SKOV3) | Normalized γH2AX intensity (SKOV3 cells; SKOV3, 1 μM veliparib, 24 hours) | ICS DA of γH2AX at 100 μM, compared to respective controls (SKOV3 cells; SKOV3, 100 μM) | Number of γH2AX foci (Imaris Spots) at the highest dose of PARP inhibitor (SKOV3 cells; SKOV3, highest dose) | ICS DA of γH2AX, dose dependence (OVCA429 cells; OVCA429) | Imaris Spots analysis of γH2AX, dose dependence (OVCA429 cells; OVCA429) | γH2AX intensity, dose dependence (OVCA429 cells; OVCA429, PARP inhibitors) | PARP1 trapping (PARP1 [1]) | 53BP1-mApple condensate anisotropy vs control (HCC1937 cells) | Condensate 53BP1-mApple intensity (HT1080 cells [2]) | p.ka_trap: association of PARPi to PARP1, corrected rate (PARP1 [3]) [M⁻¹ s⁻¹] | Apparent dissociation constant (koff) of PARPi in live cells (PARP) | ka (trap): association constant of PARPi for PARP1 (PARP1 [4]) [M⁻¹ s⁻¹] | kd (trap): dissociation of PARPi from PARP1(-DNA) (PARP1 [4]) [s⁻¹] | kd (rel PARPi): dissociation constant of PARPi-PARP1 from DNA (PARP1-DNA) [s⁻¹] | γH2AX DA induced by 1 μM veliparib or talazoparib, with vs without PDD00017273 (HT1080 cells [5]) | HT1080 dose response to veliparib, with vs without PDD00017273 (HT1080 cells [6]) |
| --- | --- | --- | --- | --- | --- | --- | --- | --- | --- | --- | --- | --- | --- | --- | --- | --- | --- |
| C[C@]1(c2nc3c(C(N)=O)cccc3[nH]2)CCCN1 [veliparib] | failed to induce any correlative TNOP dose dependence | slight decrease | higher value than 100 μM olaparib | higher | full dose dependent increases in γH2AX clustering | failed to capture the full dose dependent DNA damage | did not show a dose dependence | unable to reproduce the trapping observed with just 1 μM talazoparib | not | lowered condensate 53BP1-mApple intensity | 0.18 | values similar to those previously determined in purified protein | 1.8e+06 | 0.005 | 0.00408 |  |  |
| PDD00017273 |  |  |  |  |  |  |  |  |  |  |  |  |  |  |  | did not alter the veliparib or talazoparib induced γH2AX DA; also recorded: no significant differences | did not impact HT1080 response to veliparib |
